Results published in ChEMBL document CHEMBL1781873, “Synthesis and antibacterial property of pyrrolopyrano quinolinones and pyrroloquinolines” (2011).
Calls of active or inactive are those of the source. No cut-off for these calls is given here.

Legend:
[1] = tested on: Escherichia coli; assay: Inhibition of Escherichia coli DNA gyrase -mediated DNA relaxation using pBR322 DNA as substrate at […] after 1 hrs by agarose gel electrophoresis
[2] = tested on: Bacillus subtilis; assay: Antibacterial activity against Bacillus subtilis at 20 ug after 24 hrs by disc diffusion assay; type: functional; conditions: read-out: IZ
[3] = tested on: Pseudomonas aeruginosa; assay: Antibacterial activity against Pseudomonas aeruginosa at 15 ug after 24 hrs by disc diffusion assay; type: functional; conditions: read-out: IZ
[4] = tested on: Klebsiella pneumoniae; assay: Antibacterial activity against Klebsiella pneumoniae at 20 ug after 24 hrs by disc diffusion assay; type: functional; conditions: read-out: IZ
[5] = tested on: Salmonella typhi; assay: Antibacterial activity against Salmonella typhi at 15 ug after 24 hrs by disc diffusion assay; type: functional, Salmonella enterica subsp. enterica serovar Typhi; conditions: Salmonella enterica, read-out: IZ
[6] = tested on: Escherichia coli; assay: Antibacterial activity against Escherichia coli at 10 ug after 24 hrs by disc diffusion assay; type: functional; conditions: read-out: IZ
[7] = tested on: Klebsiella pneumoniae; assay: Antibacterial activity against Klebsiella pneumoniae at 10 ug after 24 hrs by disc diffusion assay; type: functional; conditions: read-out: IZ
[8] = tested on: Escherichia coli; assay: Antibacterial activity against Escherichia coli at 5 ug after 24 hrs by disc diffusion assay; type: functional; conditions: read-out: IZ
[9] = tested on: Bacillus subtilis; assay: Antibacterial activity against Bacillus subtilis at 10 ug after 24 hrs by disc diffusion assay; type: functional; conditions: read-out: IZ
[10] = tested on: Salmonella typhi; assay: Antibacterial activity against Salmonella typhi at 20 ug after 24 hrs by disc diffusion assay; type: functional, Salmonella enterica subsp. enterica serovar Typhi; conditions: Salmonella enterica, read-out: IZ
[11] = tested on: Pseudomonas aeruginosa; assay: Antibacterial activity against Pseudomonas aeruginosa at 25 ug after 24 hrs by disc diffusion assay; type: functional; conditions: read-out: IZ
[12] = tested on: Escherichia coli; assay: Antibacterial activity against Escherichia coli at 20 ug after 24 hrs by disc diffusion assay; type: functional; conditions: read-out: IZ
[13] = tested on: Staphylococcus aureus; assay: Antibacterial activity against Staphylococcus aureus at 5 ug after 24 hrs by disc diffusion assay; type: functional; conditions: read-out: IZ
[14] = tested on: Klebsiella pneumoniae; assay: Antibacterial activity against Klebsiella pneumoniae at 25 ug after 24 hrs by disc diffusion assay; type: functional; conditions: read-out: IZ
[15] = tested on: Salmonella typhi; assay: Antibacterial activity against Salmonella typhi at 5 ug after 24 hrs by disc diffusion assay; type: functional, Salmonella enterica subsp. enterica serovar Typhi; conditions: Salmonella enterica, read-out: IZ
[16] = tested on: Bacillus subtilis; assay: Antibacterial activity against Bacillus subtilis after 18 to 20 hrs by broth micro dilution assay; type: functional
[17] = tested on: Klebsiella pneumoniae; assay: Antibacterial activity against Klebsiella pneumoniae at 15 ug after 24 hrs by disc diffusion assay; type: functional; conditions: read-out: IZ
[18] = tested on: Escherichia coli; assay: Antibacterial activity against Escherichia coli after 18 to 20 hrs by broth micro dilution assay; type: functional
[19] = tested on: Bacillus subtilis; assay: Antibacterial activity against Bacillus subtilis at 15 ug after 24 hrs by disc diffusion assay; type: functional; conditions: read-out: IZ
[20] = tested on: Pseudomonas aeruginosa; assay: Antibacterial activity against Pseudomonas aeruginosa at 10 ug after 24 hrs by disc diffusion assay; type: functional; conditions: read-out: IZ
[21] = tested on: Staphylococcus aureus; assay: Antibacterial activity against Staphylococcus aureus after 18 to 20 hrs by broth micro dilution assay; type: functional
[22] = tested on: Escherichia coli; assay: Inhibition of DNA gyrase mRNA expression in Escherichia coli measured up to 24 hrs by RT-PCR; type: functional, organism-based
[23] = tested on: Klebsiella pneumoniae; assay: Antibacterial activity against Klebsiella pneumoniae after 18 to 20 hrs by broth micro dilution assay; type: functional
[24] = tested on: Escherichia coli; assay: Antibacterial activity against Escherichia coli at 25 ug after 24 hrs by disc diffusion assay; type: functional; conditions: read-out: IZ
[25] = tested on: Escherichia coli; assay: Inhibition of Escherichia coli DNA gyrase assessed as inhibition of DNA supercoiling activity using pBR322 DNA as substrate at […] after 3 hrs by agarose gel electrophoresis
[26] = tested on: Staphylococcus aureus; assay: Antibacterial activity against Staphylococcus aureus at 15 ug after 24 hrs by disc diffusion assay; type: functional; conditions: read-out: IZ
[27] = tested on: Pseudomonas aeruginosa; assay: Antibacterial activity against Pseudomonas aeruginosa at 20 ug after 24 hrs by disc diffusion assay; type: functional; conditions: read-out: IZ
[28] = tested on: Escherichia coli; assay: Antibacterial activity against Escherichia coli at 15 ug after 24 hrs by disc diffusion assay; type: functional; conditions: read-out: IZ
[29] = tested on: Pseudomonas aeruginosa; assay: Antibacterial activity against Pseudomonas aeruginosa after 18 to 20 hrs by broth micro dilution assay; type: functional
[30] = tested on: Klebsiella pneumoniae; assay: Antibacterial activity against Klebsiella pneumoniae at 5 ug after 24 hrs by disc diffusion assay; type: functional; conditions: read-out: IZ
[31] = tested on: Staphylococcus aureus; assay: Antibacterial activity against Staphylococcus aureus at 20 ug after 24 hrs by disc diffusion assay; type: functional; conditions: read-out: IZ
[32] = tested on: Pseudomonas aeruginosa; assay: Antibacterial activity against Pseudomonas aeruginosa at 5 ug after 24 hrs by disc diffusion assay; type: functional; conditions: read-out: IZ
[33] = tested on: Salmonella typhi; assay: Antibacterial activity against Salmonella typhi at 25 ug after 24 hrs by disc diffusion assay; type: functional, Salmonella enterica subsp. enterica serovar Typhi; conditions: Salmonella enterica, read-out: IZ
[34] = tested on: Salmonella typhi; assay: Antibacterial activity against Salmonella typhi at 10 ug after 24 hrs by disc diffusion assay; type: functional, Salmonella enterica subsp. enterica serovar Typhi; conditions: Salmonella enterica, read-out: IZ
[35] = tested on: Salmonella typhi; assay: Antibacterial activity against Salmonella typhi after 18 to 20 hrs by broth micro dilution assay; type: functional, Salmonella enterica subsp. enterica serovar Typhi; conditions: Salmonella enterica
[36] = tested on: Staphylococcus aureus; assay: Antibacterial activity against Staphylococcus aureus at 25 ug after 24 hrs by disc diffusion assay; type: functional; conditions: read-out: IZ
[37] = tested on: Bacillus subtilis; assay: Antibacterial activity against Bacillus subtilis at 25 ug after 24 hrs by disc diffusion assay; type: functional; conditions: read-out: IZ
[38] = tested on: Staphylococcus aureus; assay: Antibacterial activity against Staphylococcus aureus at 10 ug after 24 hrs by disc diffusion assay; type: functional; conditions: read-out: IZ

Structure (SMILES): CCC1[C@@H]2c3c(c4ccccc4n(C)c3=O)OC(c3ccccc3)[C@H]2CN1OS(=O)(=O)c1ccc(C)cc1 (mixture of isomers)
- inhibition [1]: Active
- zone of inhibition at 20 µg/disc [2]: 10 mm
- zone of inhibition at 15 µg/disc [3]: 17 mm
- zone of inhibition at 20 µg/disc [4]: 34 mm
- zone of inhibition at 15 µg/disc [5]: 18 mm
- zone of inhibition at 10 µg/disc [6]: 16 mm
- zone of inhibition at 10 µg/disc [7]: 26 mm
- zone of inhibition at 5 µg/disc [8]: 10 mm
- zone of inhibition at 10 µg/disc [9]: 7 mm
- zone of inhibition at 20 µg/disc [10]: 20 mm
- zone of inhibition at 25 µg/disc [11]: 24 mm
- zone of inhibition at 20 µg/disc [12]: 20 mm
- zone of inhibition at 5 µg/disc [13]: 9 mm
- zone of inhibition at 25 µg/disc [14]: 36 mm
- zone of inhibition at 5 µg/disc [15]: 10 mm
- MIC50 [16]: 128 µg/mL
- MIC90 [16]: 128 µg/mL
- zone of inhibition at 15 µg/disc [17]: 30 mm
- MIC50 [18]: 128 µg/mL
- MIC90 [18]: 128 µg/mL
- zone of inhibition at 15 µg/disc [19]: 9 mm
- zone of inhibition at 10 µg/disc [20]: 16 mm
- MIC50 [21]: 128 µg/mL
- MIC90 [21]: 128 µg/mL
- inhibition of gyrase mRNA expression (active/not active) [22]: Active
- MIC50 [23]: 128 µg/mL
- MIC90 [23]: 128 µg/mL
- zone of inhibition at 25 µg/disc [24]: 23 mm
- DNA gyrase inhibition (active/inactive) [25]: Active
- zone of inhibition at 15 µg/disc [26]: 13 mm
- zone of inhibition at 20 µg/disc [27]: 22 mm
- zone of inhibition at 15 µg/disc [28]: 18 mm
- MIC50 [29]: 128 µg/mL
- MIC90 [29]: 128 µg/mL
- zone of inhibition at 5 µg/disc [30]: 20 mm
- zone of inhibition at 20 µg/disc [31]: 14 mm
- zone of inhibition at 5 µg/disc [32]: 10 mm
- zone of inhibition at 25 µg/disc [33]: 22 mm
- zone of inhibition at 10 µg/disc [34]: 16 mm
- MIC50 [35]: 128 µg/mL
- MIC90 [35]: 128 µg/mL
- zone of inhibition at 25 µg/disc [36]: 17 mm
- zone of inhibition at 25 µg/disc [37]: 12 mm
- zone of inhibition at 10 µg/disc [38]: 12 mm
